Assay results taken from paper PMC4209162, “Specific aromatic foldamers potently inhibit spontaneous and seeded Aβ42 and Aβ43 fibril assembly” (Biochemical Journal, 2014).
“Also recorded” adds a separate entry of the source.

Experiments:
Aβ42 [1] = molecular target: T1, Aβ42 (Homo sapiens, UniProt P05067); assay: Spontaneous Aβ42 fibrillization (ThT fluorescence, EM); assay type: biochemical; details: for Inhibition of spontaneous Aβ42 fibrillization: Aβ42 5 μM, foldamer 10 μM, 8 h, agitation, ThT fluorescence (EM 4 h); for Inhibition of spontaneous Aβ42 fibrillization / Inhibition of spontaneous Aβ42 fibrillization, different assembly conditions: 25°C; for Inhibition of spontaneous Aβ42 fibrillization, different assembly conditions: Aβ prepared without DMSO, PBE pH 8, Aβ42 5 μM, foldamer 20 μM, 16 h, ThT
T1 sequence (P05067 672-713 limits assumed): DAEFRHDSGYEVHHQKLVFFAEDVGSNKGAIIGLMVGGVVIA

Aβ43 [2] = molecular target: T2, Aβ43 (Homo sapiens, UniProt P05067); assay: Spontaneous Aβ43 fibrillization (ThT fluorescence, EM); assay type: biochemical; details: for Inhibition of spontaneous Aβ43 fibrillization: foldamer 5, 10 or 20 μM, 0–8 h, EM 10 μM 4 h
T2 sequence (P05067 672-714 limits assumed): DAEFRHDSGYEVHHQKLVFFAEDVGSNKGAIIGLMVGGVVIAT

FUS = molecular target: T3, FUS (Homo sapiens, UniProt P35637); assay: FUS aggregation (turbidity, absorbance at 395 nm); assay type: biochemical; details: GST-FUS 5 μM, foldamer 20 μM, plus TEV protease, 25°C, 0–90 min
T3 sequence (P35637 1-526): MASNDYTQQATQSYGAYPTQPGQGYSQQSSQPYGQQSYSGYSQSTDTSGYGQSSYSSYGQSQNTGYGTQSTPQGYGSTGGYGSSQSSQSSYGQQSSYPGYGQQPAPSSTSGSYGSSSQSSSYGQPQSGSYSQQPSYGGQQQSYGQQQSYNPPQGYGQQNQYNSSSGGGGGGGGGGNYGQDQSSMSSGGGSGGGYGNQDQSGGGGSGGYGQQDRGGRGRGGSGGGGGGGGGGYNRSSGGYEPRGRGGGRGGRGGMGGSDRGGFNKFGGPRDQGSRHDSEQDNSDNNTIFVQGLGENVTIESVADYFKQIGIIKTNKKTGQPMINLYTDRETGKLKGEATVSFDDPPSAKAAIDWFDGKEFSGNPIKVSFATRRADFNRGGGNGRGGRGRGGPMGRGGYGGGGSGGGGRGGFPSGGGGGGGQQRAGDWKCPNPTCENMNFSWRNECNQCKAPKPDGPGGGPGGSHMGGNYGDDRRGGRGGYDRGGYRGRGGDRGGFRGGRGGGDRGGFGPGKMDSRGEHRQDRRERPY
Description: GST–TEV–FUS was purified as described. Aggregation was initiated by addition of tobbaco etch virus (TEV) protease to GST–TEV–FUS (5 μM) plus or minus foldamer (20 μM) in assembly buffer (50 mM Tris/HCl pH 8, 0.2 M trehalose and 20 mM glutathione). Aggregation was for 0–90 min at 25°C without agitation in a 96-well plate and was assessed by turbidity (absorbance at 395 nm) using a Tecan Infinite M1000 plate reader. No aggregation occurred unless TEV protease was added to separate GST from FUS [58].

Aβ43 oligomers = Aβ43 oligomers (Homo sapiens, UniProt P05067); assay: A11-reactive Aβ43 conformers (ELISA); assay type: biochemical; details: Aβ43 5 μM, foldamer 20 μM, 25°C; for Effect on A11-reactive Aβ43 conformers after 0.5 h: 0.5 h (end of lag phase); for Effect on A11-reactive Aβ43 conformers after 4 h: 4 h (endpoint of fibrillization)
Chain of Aβ43 oligomers (P05067 672-714 limits assumed): as the sequence (P05067 672-714 limits assumed) above

Aβ42 oligomers = Aβ42 oligomers (Homo sapiens, UniProt P05067); assay: A11-reactive Aβ42 conformers (ELISA); assay type: biochemical; details: Aβ42 5 μM, foldamer 20 μM, 25°C; for Effect on A11-reactive Aβ42 conformers after 0.5 h: 0.5 h (end of lag phase); for Effect on A11-reactive Aβ42 conformers after 4 h: 4 h (endpoint of fibrillization)
Chain of Aβ42 oligomers (P05067 672-713 limits assumed): as the sequence (P05067 672-713 limits assumed) above

[3] = tested on: SH-SY5Y human neuroblastoma cells; assay: Toxicity of Aβ42 conformers to SH-SY5Y cells (MTT reduction, LDH release); assay type: cell-based; details: 24 h, MTT and LDH; for Effect on toxicity of Aβ42 conformers after 0.5 h of assembly: Aβ42 5 μM assembled with foldamer 20 μM for 0.5 h; for Effect on toxicity of Aβ42 conformers after 4 h of assembly: Aβ42 5 μM assembled with foldamer 20 μM for 4 h
Description: (§1) SH-SY5Y human neuroblastoma cells were maintained in Dulbecco's modified Eagle's medium (DMEM) plus 10 mM Hepes, 10% FBS, 4 mM glutamine, penicillin (200 units/ml) and streptomycin (200 μg/ml) in 5% CO2 at 37°C. Cells were differentiated in serum-free DMEM with N2 supplement and 10 μM all-trans-retinoic acid before use. Cells were plated at (10000 cells/well) in 96-well plates and grown overnight. Medium was removed and Aβ conformers or controls were added and cells were incubated for 24 h at 37°C. Toxicity was assessed using an MTT kit (Tox-1; Sigma) or via lactate dehydrogenase (LDH) release using the CytoTox-ONE™ kit (Promega). Toxicity values were normalized to the buffer control without Aβ.

Aβ42 [4] = molecular target: T1, Aβ42; assay: Seeded Aβ42 fibrillization (ThT fluorescence, EM); assay type: biochemical; details: for Extent of seeded Aβ42 fibrillization at 4-fold molar excess of foldamer / Inhibition of seeded Aβ42 fibrillization: Aβ42 5 μM plus seed 0.1 μM monomer; for Extent of seeded Aβ42 fibrillization at 4-fold molar excess of foldamer / Inhibition of seeded Aβ42 fibrillization, different assembly conditions: foldamer 20 μM; for Inhibition of seeded Aβ42 fibrillization: foldamer 5, 10 or 20 μM, 0–2 h, 25°C; for Inhibition of seeded Aβ42 fibrillization, different assembly conditions: Aβ prepared without DMSO, PBE pH 8, Aβ42 5 μM plus seed 0.1 μM monomer, 16 h
Aβ42 fibrils = Aβ42 fibrils (Homo sapiens, UniProt P05067); assay: Disassembly of preformed Aβ42 fibrils; assay type: biochemical; details: foldamer in 4-fold molar excess, 24 h (results not shown)
Chain of Aβ42 fibrils (P05067 672-713 limits assumed): as above

[5] = tested on: SH-SY5Y human neuroblastoma cells; assay: Toxicity of Aβ43 conformers to SH-SY5Y cells (MTT reduction, LDH release); assay type: cell-based; details: 24 h, MTT and LDH; for Effect on toxicity of Aβ43 conformers after 0.5 h of assembly: Aβ43 5 μM assembled with foldamer 20 μM for 0.5 h; for Effect on toxicity of Aβ43 conformers after 4 h of assembly: Aβ43 5 μM assembled with foldamer 20 μM for 4 h
Description: as §1

Aβ43 [6] = molecular target: T2, Aβ43; assay: Seeded Aβ43 fibrillization (ThT fluorescence, EM); assay type: biochemical; details: for Inhibition of seeded Aβ43 fibrillization: Aβ43 5 μM plus seed 0.1 μM monomer, foldamer 5, 10 or 20 μM, 0–2 h, 25°C, EM

For (Arg-Sal-Cit-Sal)2-CONH2, the “Inhibition of spontaneous Aβ42 fibrillization” value (Aβ42 [1]) was “ineffective”.
In the case of (Arg-Sal)2-(Cit-Sal)-(Arg-Sal)-CONH2, the “Inhibition of spontaneous Aβ42 fibrillization” value (Aβ42 [1]) is reported as “ineffective”.
Molecule `COc1ccc(NC(=O)[C@H](CCCNC(N)=O)NC(=O)c2cc(NC(=O)[C@H](CCCNC(=N)N)NC(=O)c3cc(NC(=O)[C@H](CCCNC(=N)N)NC(=O)c4cc(NC(=O)[C@@H](N)CCCNC(=N)N)ccc4OC)ccc3OC)ccc2OC)cc1C(N)=O` [(Arg-Sal)3-(Cit-Sal)-CONH2] has an IC50 (Aβ43 [2]) of roughly 3100 nM and an IC50 (Aβ42 [1]) of roughly 1600 nM.
For Sal-(Lys-Sal)3-CONH2, the “Inhibition of FUS aggregation” value (FUS) was “delayed FUS aggregation”, the “Effect on A11-reactive Aβ43 conformers after 0.5 h” value (Aβ43 oligomers) was “had no effect” and the “Effect on A11-reactive Aβ43 conformers after 4 h” value (Aβ43 oligomers) was “declined more extensively”. For the same molecule, the “ThT fluorescence of Aβ43 fibrils formed in presence of foldamer (spontaneous)” value (Aβ43 [2]; Aβ43 5 μM, compared with Aβ43 alone) was “higher ThT fluorescence”, the “Inhibition of spontaneous Aβ43 fibrillization” value (Aβ43 [2]; Aβ43 5 μM, 25°C, ThT) was “did not block spontaneous Aβ43 fibrillization” and the “Effect on A11-reactive Aβ42 conformers after 0.5 h” value (Aβ42 oligomers) was “had no effect”. For the same molecule, the “Effect on A11-reactive Aβ42 conformers after 4 h” value (Aβ42 oligomers) was “remained at higher levels”, the “Effect on toxicity of Aβ42 conformers after 0.5 h of assembly” value [3] was “had no effect” and the “Effect on toxicity of Aβ42 conformers after 4 h of assembly” value [3] was “enhanced”. The “Extent of seeded Aβ42 fibrillization at 4-fold molar excess of foldamer” value (Aβ42 [4]) was “very limited”, the “Inhibition of seeded Aβ42 fibrillization” value (Aβ42 [4]) was “only inhibited seeded Aβ42 fibrillization when present at a 4-fold molar excess over Aβ42” and the “Inhibition of seeded Aβ42 fibrillization, different assembly conditions” value (Aβ42 [4]) was “inhibited”. The “Disassembly of Aβ42 fibrils” value (Aβ42 fibrils) was “did not disassemble Aβ42 fibrils”, the “Effect on toxicity of Aβ43 conformers after 0.5 h of assembly” value [5] was “neither Sal-(Lys-Sal)3-CONH2 nor Ac-Sal-(Lys-Sal)3-CONH2 affected the toxicity” and the “Effect on toxicity of Aβ43 conformers after 4 h of assembly” value [5] was “neither Sal-(Lys-Sal)3-CONH2 nor Ac-Sal-(Lys-Sal)3-CONH2 affected the toxicity”. The “Inhibition of seeded Aβ43 fibrillization” value (Aβ43 [6]; ThT) was “did not inhibit seeded Aβ43 fibrillization”, the “ThT fluorescence of Aβ43 fibrillar forms in presence of foldamer (seeded)” value (Aβ43 [6]; Aβ43 5 μM plus seed, compared with Aβ43 alone) was “higher ThT fluorescence signal” and the “Inhibition of spontaneous Aβ42 fibrillization” value (Aβ42 [1]) was “strong inhibitors; also recorded: potent inhibitors”. The “Inhibition of spontaneous Aβ42 fibrillization, different assembly conditions” value (Aβ42 [1]) was “inhibited”.
In the case of Ac-(Lys-Sal)3-CONH2, the “Inhibition of spontaneous Aβ42 fibrillization” value (Aβ42 [1]) is reported as “failed to inhibit assembly”.
For (Lys-Sal)2-CONH2, the “Inhibition of spontaneous Aβ42 fibrillization” value (Aβ42 [1]) was “failed to inhibit assembly”.
(Arg-Benz)4-CONH2 was tested, and the “Inhibition of FUS aggregation” value (FUS) was “did not inhibit FUS aggregation”, the “Effect on A11-reactive Aβ43 conformers after 0.5 h” value (Aβ43 oligomers) was “had no effect” and the “Effect on A11-reactive Aβ43 conformers after 4 h” value (Aβ43 oligomers) was “had a similar effect”. For the same molecule, the “Major Aβ43 species by EM” value (Aβ43 [2]; Aβ43 5 μM, foldamer 10 μM, 4 h, 25°C) was “small oligomers were the major species”, the “Inhibition of spontaneous Aβ43 fibrillization” value (Aβ43 [2]; Aβ43 5 μM, 25°C, ThT) was “blocked spontaneous Aβ43 fibrillization” and the “Inhibition of spontaneous Aβ43 fibrillization, different assembly conditions” value (Aβ43 [2]; Aβ prepared without DMSO, PBE pH 8, Aβ43 5 μM, foldamer 20 μM, 16 h, 25°C, ThT) was “inhibited”. The “Effect on A11-reactive Aβ42 conformers after 0.5 h” value (Aβ42 oligomers) was “had no effect”, the “Effect on A11-reactive Aβ42 conformers after 4 h” value (Aβ42 oligomers) was “remained at higher levels” and the “Effect on toxicity of Aβ42 conformers after 0.5 h of assembly” value [3] was “had no effect”. For the same molecule, the “Effect on toxicity of Aβ42 conformers after 4 h of assembly” value [3] was “enhanced”, the “Extent of seeded Aβ42 fibrillization at 4-fold molar excess of foldamer” value (Aβ42 [4]) was “some fibrillization occurred” and the “Inhibition of seeded Aβ42 fibrillization” value (Aβ42 [4]) was “only inhibited seeded Aβ42 fibrillization when present at a 4-fold molar excess over Aβ42”. For the same molecule, the “Inhibition of seeded Aβ42 fibrillization, different assembly conditions” value (Aβ42 [4]) was “inhibited”, the “Disassembly of Aβ42 fibrils” value (Aβ42 fibrils) was “did not disassemble Aβ42 fibrils” and the “Effect on toxicity of Aβ43 conformers after 0.5 h of assembly” value [5] was “had no effect”. The “Effect on toxicity of Aβ43 conformers after 4 h of assembly” value [5] was “enhanced”, the “Inhibition of seeded Aβ43 fibrillization” value (Aβ43 [6]; ThT) was “blocked seeded Aβ43 fibrillization” and the “Inhibition of seeded Aβ43 fibrillization, different assembly conditions” value (Aβ43 [6]; Aβ prepared without DMSO, PBE pH 8, Aβ43 5 μM plus seed 0.1 μM monomer, foldamer 20 μM, 16 h, ThT) was “inhibited”. The “Inhibition of spontaneous Aβ42 fibrillization” value (Aβ42 [1]) was “strong inhibitors; also recorded: potent inhibitors” and the “Inhibition of spontaneous Aβ42 fibrillization, different assembly conditions” value (Aβ42 [1]) was “inhibited”.
(Lys-Sal)4-COOH was tested, and the “Inhibition of spontaneous Aβ42 fibrillization” value (Aβ42 [1]) was “ineffective”.
With (Cit-Sal)2-(Arg-Sal)-(Cit-Sal)-CONH2 the “Inhibition of spontaneous Aβ42 fibrillization” value (Aβ42 [1]) was “ineffective”.
